“And” between values parts separate entries of the source, which are not always exact repeats. Equal entries are not always repeated. Where two headings read alike, the source gives them in different places.
How the values were obtained:
[1] = test system: cryopreserved human primary hepatocytes; assay: in vitro; settings: human, hepatocytes
Source text: Briefly, cryopreserved human primary hepatocytes were thawed and cultured as described above.

[2] = test system: P. falciparum Pf3D7^0087/N9; assay: Single dose in vivo efficacy in humanized NSG mice; set-up: species or system Plasmodium falciparum
Method: The effect of pantothenamides on P. falciparum Pf3D7^0087/N9 [66] in vivo was assessed in female NSG mice (NODscidIL2Rγ^null) at the Swiss Tropical and Public Health Institute (Basel, Switzerland) as described previously (Supplementary Table 30)[15],[67]. Briefly, humanized mice were engrafted daily with human erythrocyte suspensions from days -11 to day 6. […] On day 4, groups of n = 2 mice were treated with a single dose pantothenamides or chloroquine (50 mg/kg) by oral gavage. […] Serial dilutions were prepared in the same solvent to concentrations 50 times higher than the corresponding CAL and QC concentrations. The concentrations were calculated under consideration of purity and salt factor. The spiking of the CAL and QC sample were performed at room temperature.

[3] = test system: P. falciparum NF54 asexual blood-stage parasites; assay: 72-h asexual blood-stage replication assay (SYBR Green); format: cell-based, Plasmodium falciparum; settings: asexual blood stages NF54 parasites; read-out: IC50
Method: (§1) Replication assays were performed using a SYBR Green method as described previously. Briefly, asynchronous parasites were diluted to 0.83% parasitemia, 3% hematocrit in 30 µl medium, and added to 30 µl of diluted compounds in medium (0.1% DMSO final concentration) in black 384-wells plates. After a 72-h incubation, 30 µl of SYBR Green diluted in lysis buffer was added according to the manufacturer’s protocol (Life Technologies). Fluorescence intensity was measured on a BioTek Synergy 2 Plate Reader after 1-h incubation and was normalized to a DMSO control (100% growth) and DHA- or epoxomicin-treatment (no growth). […] Parasite survival was assessed by flow cytometry on an Accuri C6 (BD Biosciences) with BD C6 Plus software using SYBR Green and MitoTracker Deep Red FM (Life Technologies) as nuclear stain and vital dye, respectively, and data were analyzed using FlowJo (10.5.0). […] Luminescence was measured after 72 h using the Renilla-Glo(R) Luciferase Assay System (Promega E2750) and the GlomAX® Discover Multimode Microplate Reader (Promega). The luminescence values were normalized to DMSO vehicle (100% growth) and 200 nM chloroquine-treated (no growth) samples as controls.
Dose-response assays were analyzed by a nonlinear regression using a four-parameter model and the least squares method to find the best fit. One-way Analysis of variance (ANOVA) was performed using the Bonferroni’s Multiple Comparison Test. For the majority of experiments, 2-4 biological replicates were performed. Typically, 2 replicates were performed for screening activities, and a minimum of 3 replicates are performed for other experiments unless stated otherwise.

[4] = test system: P. falciparum NF54-HGL, dT648M, cT648M, cT627A asexual blood stages; assay: Asexual drug-sensitivity of AcAS mutant parasites; format: cell-based, Plasmodium falciparum; set-up: key to asexual blood stages growth, dose-response: % growth; DMSO control = 100%, DHA/epoxomicin = no growth
Method: as §1
The mutation found in selected drug-resistant parasites was verified by introducing the point mutations in AcAS (T648M and T627A) in NF54-HGL parasites using a CRISPR-Cas9 system as described previously. The oligonucleotides for the guide RNA and the donor template were cloned into a pDC2-based plasmid containing a Cas9 and guide cassette, using the BbsI and EcoRI/AatII restriction sites, respectively. Donor DNA was amplified by (overlap-extension) PCR amplification from genomic P. falciparum DNA and oligonucleotides for the guide RNAs were ordered (Sigma-Aldrich). The correct sequence and integration of both inserts were confirmed by Sanger Sequencing.

[5] = test system: P. falciparum T648M / T627A AcAS mutant gametocytes; format: cell-based, Plasmodium falciparum
Method: Gametocyte viability assays on NF54-HGL parasites were performed using an adapted high-throughput protocol as previously described[15],[64]. In short, asexual blood-stage parasite cultures were set up at 1% parasitemia in a semi-automated shaker system at 5% hematocrit. From day four until day eight or nine, parasites were treated with 50 mM N-acetyl glucosamine to eliminate all asexual blood-stage parasites. Subsequently, gametocytes were isolated by a Percoll density gradient centrifugation. At day 11, gametocytes were seeded (5,000 per well) in 30 µl in white 384-well plates containing 30 µl of compounds diluted in medium (0.1% DMSO). After a 72-h incubation, 30 µl of ONE-Glo reagent (Promega) was added according to manufacturer’s protocol and luminescence was quantified using the BioTek Synergy 2 Plate reader. Values were normalized to DMSO- and epoxomicin or dihydroartemisinin-treated controls.

[6] = cT627A, Log concentration (M) -7.5
[7] = cT627A, Log concentration (M) -8
[8] = cT627A, Log concentration (M) -8.5
[9] = cT627A, Log concentration (M) -9
[10] = cT627A, Log concentration (M) -9.5
[11] = cT627A, Log concentration (M) -10
[12] = cT648M, Log concentration (M) -6
[13] = cT648M, Log concentration (M) -6.5
[14] = cT648M, Log concentration (M) -7
[15] = cT648M, Log concentration (M) -7.5
[16] = cT648M, Log concentration (M) -8
[17] = cT648M, Log concentration (M) -8.5
[18] = cT648M, Log concentration (M) -9
[19] = cT648M, Log concentration (M) -9.5
[20] = cT648M, Log concentration (M) -10
[21] = dT648M, Log concentration (M) -6
[22] = dT648M, Log concentration (M) -6.5
[23] = dT648M, Log concentration (M) -7
[24] = dT648M, Log concentration (M) -7.5
[25] = dT648M, Log concentration (M) -8
[26] = dT648M, Log concentration (M) -8.5
[27] = dT648M, Log concentration (M) -9
[28] = dT648M, Log concentration (M) -9.5
[29] = dT648M, Log concentration (M) -10

SMILES: CC(CNC(=O)C(O)C(C)(C)CO)NC(=O)CCc1ccccc1F (stereo in doubt) [MMV689258]
- Human hepatocyte CLint [1]: 0.8 µl/min/10^6 cells
- Parasitemia ([2]; day 5 post infection, 50 mg/kg p.o. on day 4, per mouse, 50 mg/kg): 0.26 and 0.2
- Parasitemia ([2]; day 6 post infection, per mouse): 0.15 and 0.1
- Parasitemia ([2]; day 7 post infection, per mouse): 0.22 and 0.12
- parasitemia outcome ([2]; single 50 mg/kg oral gavage on day 4, over three days): not fully cleared
- IC50 [3]: 7 nM
- asexual blood stages growth, dose-response ([4]; NF54-HGL, Log concentration (M) -9): 76.1 and 93.6 and 100.55
- asexual blood stages growth, dose-response ([4]; NF54-HGL, Log concentration (M) -9.5): 86.25 and 83.5 and 106.05
- asexual blood stages growth, dose-response ([4]; NF54-HGL, Log concentration (M) -10): 96.25 and 97.9 and 112.35
- asexual blood stages growth, dose-response [4, 6]: 91.7 and 68.35 and 87.5
- asexual blood stages growth, dose-response [4, 7]: 98.75 and 75.4 and 102
- asexual blood stages growth, dose-response [4, 8]: 98.95 and 109.7 and 103.8
- asexual blood stages growth, dose-response [4, 9]: 93.85 and 110.4 and 101.9
- asexual blood stages growth, dose-response [4, 10]: 95.15 and 100.65 and 102.3
- asexual blood stages growth, dose-response [4, 11]: 92.1 and 102.75
- asexual blood stages growth, dose-response [4, 12]: 85.3 and 76.95 and 95.6
- asexual blood stages growth, dose-response [4, 13]: 97.25 and 93 and 109.55
- asexual blood stages growth, dose-response [4, 14]: 112 and 98.45 and 99.1
- asexual blood stages growth, dose-response [4, 15]: 108.7 and 101 and 101.4
- asexual blood stages growth, dose-response [4, 16]: 108.05 and 99.35 and 97.85
- asexual blood stages growth, dose-response [4, 17]: 99.1 and 110.25 and 104.05
- asexual blood stages growth, dose-response [4, 18]: 88.2 and 96.6 and 106.85
- asexual blood stages growth, dose-response [4, 19]: 95.65 and 97.35 and 100.3
- asexual blood stages growth, dose-response [4, 20]: 86.35 and 97.9 and 99.6
- asexual blood stages growth, dose-response [4, 21]: 86.55
- asexual blood stages growth, dose-response [4, 22]: 89.25
- asexual blood stages growth, dose-response [4, 23]: 95.15
- asexual blood stages growth, dose-response [4, 24]: 99.65
- asexual blood stages growth, dose-response [4, 25]: 89.85
- asexual blood stages growth, dose-response [4, 26]: 92.65
- asexual blood stages growth, dose-response [4, 27]: 97.45
- asexual blood stages growth, dose-response [4, 28]: 97
- asexual blood stages growth, dose-response [4, 29]: 99.15
- gametocyte viability, dose-response ([5]; cT627A, Log concentration (M) -6): 54.65 and 65.95 and 38.25
- gametocyte viability, dose-response ([5]; cT627A, Log concentration (M) -6.5): 66.35 and 84.15 and 69.3
- gametocyte viability, dose-response ([5]; cT627A, Log concentration (M) -7): 85 and 95.75 and 66.7
- gametocyte viability, dose-response [5, 6]: 95.85 and 91.8 and 94.3
- gametocyte viability, dose-response [5, 7]: 92.9 and 96.45 and 100.2
- gametocyte viability, dose-response [5, 8]: 84.65 and 95.2 and 101.25
- gametocyte viability, dose-response [5, 9]: 97.55 and 97.85 and 111.3
- gametocyte viability, dose-response [5, 10]: 87.2 and 101.95 and 102.75
- gametocyte viability, dose-response [5, 11]: 85.8 and 97.9 and 99.85
- gametocyte viability, dose-response [5, 12]: 103.9 and 89.5 and 90.75
- gametocyte viability, dose-response [5, 13]: 103.05 and 97.85 and 100.35
- gametocyte viability, dose-response [5, 14]: 99.3 and 92.85 and 107.7
- gametocyte viability, dose-response [5, 15]: 98.25 and 95.25 and 103.7
- gametocyte viability, dose-response [5, 16]: 84.9 and 96.6 and 106.6
- gametocyte viability, dose-response [5, 17]: 104.05 and 98.15 and 101
- gametocyte viability, dose-response [5, 18]: 97.2 and 88.65 and 97.7
- gametocyte viability, dose-response [5, 19]: 106.45 and 88.2 and 104.1
- gametocyte viability, dose-response [5, 20]: 102.75 and 101.9 and 108.55
- gametocyte viability, dose-response [5, 21]: 104.25
- gametocyte viability, dose-response [5, 22]: 95.5
- gametocyte viability, dose-response [5, 23]: 100.05
- gametocyte viability, dose-response [5, 24]: 101.95
- gametocyte viability, dose-response [5, 25]: 95.3
- gametocyte viability, dose-response [5, 26]: 102.85
- gametocyte viability, dose-response [5, 27]: 93.8
- gametocyte viability, dose-response [5, 28]: 107.4
- gametocyte viability, dose-response [5, 29]: 95.7
